Experimental data published in US20250059195A1, “TRIAZOLONE DERIVATIVE SALT AS NEUTROPHIL ELASTASE INHIBITOR” (CHIESI FARMACEUTICI S.P.A., priority 2021, published 2025).
Read-outs that look alike come from different tables or passages of the source.

How the values were obtained:
[1] = rat, in vivo
Description: (§1) Male Wistar rats were dosed by the snout-only inhalation route with (2-{5-Cyano-2-[(R)-6-methoxycarbonyl-7-methyl-3-oxo-8-(3-trifluoromethyl-phenyl)-2,3,5,8-tetrahydro-[1,2,4]triazolo[4,3-a]pyrimidin-5-yl]-phenyl}-ethyl)-trimethyl-ammonium methanesulfonate salt (described in WO 2014/095700), (2-{5-Cyano-2-[(R)-6-methoxycarbonyl-7-methyl-3-oxo-8-(3-trifluoromethyl-phenyl)-2,3,5,8-tetrahydro-[1,2,4]triazolo[4,3-a]pyrimidin-5-yl]-phenyl}-ethyl)-trimethyl-ammonium xinafoate salt (I) and (2-{5-Cyano-2-[(R)-6-methoxycarbonyl-7-methyl-3-oxo-8-(3-trifluoromethyl-phenyl)-2,3,5,8-tetrahydro-[1,2,4]triazolo[4,3-a]pyrimidin-5-yl]-phenyl}-ethyl)-trimethyl-ammonium acetate salt (which is described in WO 2014/095700), (2-{5-Cyano-2-[(R)-6-methoxycarbonyl-7-methyl-3-oxo-8-(3-trifluoromethyl-phenyl)-2,3,5,8-tetrahydro-[1,2,4]triazolo[4,3-a]pyrimidin-5-yl]-phenyl}-ethyl)-trimethyl-ammonium bromide salt (whose synthesis is described in WO 2014/095700) or lactose (vehicle) given as dry powder formulations. The duration of aerosol exposure was of 60 minutes. On the day of dosing, animals were placed into the plethysmograph tubes for at least 30 minutes prior to dosing and respiratory parameters: respiratory rate, tidal volume, and PenH were continuously recorded for at least 30 minutes pre-dose, 60 minutes during dosing (exposure) and 90 minutes post-exposure. The respiratory parameters were recorded every minute for a total period of 3 hours using the EMMS eDacq system (PLY231, EMMS, Bordon, United Kingdom).

[2] = Head-out plethysmography (HOP) assay, lung function parameters; settings: rats, dry powder snout-only inhalation
Description: as §1

[3] = molecular target: T1, human neutrophil elastase (HNE) (Homo sapiens, UniProt P08246); assay: HNE-induced lung injury assay (BAL fluid haemoglobin content); assay type: in vivo, rat; settings: for % Inhibition at 300 μg/Kg (inhibition of HNE-induced haemoglobin content in BALF) / % Inhibition at 600 μg/Kg (inhibition of HNE-induced haemoglobin content in BALF): male Sprague Dawley rats, dry powder nose-only inhalation 3 hours prior to HNE i.t. 100 U/rat, vs HNE-treated vehicle control; for % Inhibition at 300 μg/Kg (inhibition of HNE-induced haemoglobin content in BALF): 300 μg/Kg (0.3 mg/kg); for % Inhibition at 600 μg/Kg (inhibition of HNE-induced haemoglobin content in BALF): 600 μg/Kg (0.6 mg/kg); for inhibition of BAL fluid haemoglobin content, dose dependence: inhalation as dry powder formulation at 0.03, 0.3 and 0.6 mg/kg
T1 sequence (P08246 30-267): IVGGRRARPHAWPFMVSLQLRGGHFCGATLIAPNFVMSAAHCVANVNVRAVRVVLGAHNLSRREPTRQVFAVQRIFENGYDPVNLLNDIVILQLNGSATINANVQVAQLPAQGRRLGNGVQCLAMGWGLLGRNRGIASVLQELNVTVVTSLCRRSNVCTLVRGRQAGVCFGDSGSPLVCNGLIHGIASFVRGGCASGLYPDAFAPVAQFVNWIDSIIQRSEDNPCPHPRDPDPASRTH
Description: Then, one hour after the PBS or HNE administration animals were sacrificed and bronchoalveolar lavage (BAL) was performed in order to assess the HNE-induced lung injury measured as haemoglobin concentration.
BAL fluid samples were centrifuged at 800 g for 15 min at 4° C. The supernatant was collected and the pellet was re-suspended in 3 mL of distilled water. A standard curve with known volumes of lysated blood cells was made from a stem solution of lysated blood cells. 150 μL of standards and samples were transferred in duplicate to a 96-well plate and the OD measured at 412 nm.
Percentage of compound efficacy (assessed as inhibition of HNE-induced haemoglobin content in BALF) was calculated following this formula: 100−[(mean of haemoglobin concentration of test compound treated rats exposed to HNE)−(mean of haemoglobin concentration of vehicle treated rats exposed to PBS)]/[(mean of haemoglobin concentration of vehicle treated rats exposed to HNE)−(mean of haemoglobin concentration of vehicle treated rats exposed to PBS)]×100.

[4] = Solubility in water of different salts; assay type: physicochemical; settings: water at RT
Description: The complete dissolution of the material was visually observed. […] From this experiment the xinafoate salt has a solubility lower than 0.05 mg/ml.

[5] = male, Wistar, 0.6 mg/kg, 60 min

## CC(=O)[O-].COC(=O)C1=C(C)N(c2cccc(C(F)(F)F)c2)c2n[nH]c(=O)n2[C@@H]1c1ccc(C#N)cc1CC[N+](C)(C)C [Acetate, (2-{5-Cyano-2-[(R)-6-methoxycarbonyl-7-methyl-3-oxo-8-(3-trifluoromethyl-phenyl)-2,3,5,8-tetrahydro-[1,2,4]triazolo[4,3-a]pyrimidin-5-yl]-phenyl}-ethyl)-trimethyl-ammonium acetate salt]
[1]; male, Wistar, 7 mg/kg, 60 min
  increase in PenH area: about 9 fold
  increase in respiratory rate, maximum effect vs vehicle: 51%
  reduced tidal volume, maximum decrease vs vehicle control: 50%
[1]; male, Wistar, 60 min
  % of Reduction of tidal volume at the highest tested dose: 50%

## COC(=O)C1=C(C)N(c2cccc(C(F)(F)F)c2)c2n[nH]c(=O)n2[C@@H]1c1ccc(C#N)cc1CC[N+](C)(C)C.[Br-] [Bromide, (2-{5-Cyano-2-[(R)-6-methoxycarbonyl-7-methyl-3-oxo-8-(3-trifluoromethyl-phenyl)-2,3,5,8-tetrahydro-[1,2,4]triazolo[4,3-a]pyrimidin-5-yl]-phenyl}-ethyl)-trimethyl-ammonium bromide salt]
[2]; high dose (5.5 mg/kg)
  increase in PenH area compared to vehicle: ~20 fold
[2]; high dose (5.5 mg/kg), during inhalation
  reduction in tidal volume, maximum vs vehicle: 38%
[2]; low dose (0.55 mg/kg)
  increase in PenH area compared to vehicle: about 8 fold
[2]; low dose (0.55 mg/kg), during inhalation
  increase in respiratory rate, maximum effect vs vehicle: 59%
[2]; peak effect vs vehicle (lactose)
  % of Reduction of tidal volume at the highest tested dose: 38%

## COC(=O)C1=C(C)N(c2cccc(C(F)(F)F)c2)c2n[nH]c(=O)n2[C@@H]1c1ccc(C#N)cc1CC[N+](C)(C)C.CS(=O)(=O)[O-] [Methanesulfonate, (2-{5-Cyano-2-[(R)-6-methoxycarbonyl-7-methyl-3-oxo-8-(3-trifluoromethyl-phenyl)-2,3,5,8-tetrahydro-[1,2,4]triazolo[4,3-a]pyrimidin-5-yl]-phenyl}-ethyl)-trimethyl-ammonium methanesulfonate]
[1]; [5]
  increase of PenH compared to vehicle group: about 8 fold
  increase of respiratory rate, peak effect vs vehicle (lactose): 32%
  reduction of tidal volume, peak effect vs vehicle: 35%
[1]; male, Wistar, 6 mg/kg, 60 min
  increase of PenH compared to vehicle group: ~16 fold
  increase of respiratory rate, peak effect vs vehicle (lactose): 54%
  reduction of tidal volume, peak effect vs vehicle: 39%
[1]; male, Wistar, 60 min
  % of Reduction of tidal volume at the highest tested dose: 35-39%
[3]
  % Inhibition at 300 μg/Kg (inhibition of HNE-induced haemoglobin content in BALF): 20%
  % Inhibition at 600 μg/Kg (inhibition of HNE-induced haemoglobin content in BALF): 25%
[3]; rats
  inhibition of BAL fluid haemoglobin content, dose dependence: dose-dependent inhibition

## COC(=O)C1=C(C)N(c2cccc(C(F)(F)F)c2)c2n[nH]c(=O)n2[C@@H]1c1ccc(C#N)cc1CC[N+](C)(C)C [Xinafoate, (2-{5-Cyano-2-[(R)-6-methoxycarbonyl-7-methyl-3-oxo-8-(3-trifluoromethyl-phenyl)-2,3,5,8-tetrahydro-[1,2,4]triazolo[4,3-a]pyrimidin-5-yl]-phenyl}-ethyl)-trimethyl-ammonium xinafoate]
[1]
  % of Reduction of tidal volume at the highest tested dose: No variation of any lung function parameters
[3]
  % Inhibition at 300 μg/Kg (inhibition of HNE-induced haemoglobin content in BALF): 35%
  % Inhibition at 600 μg/Kg (inhibition of HNE-induced haemoglobin content in BALF): 80%
[3]; rats, dry powder inhalation
  efficacy in inhibiting HNE in vivo, comparison of the salts: superior efficacy than the methanesulfonate salt
[3]; rats
  inhibition of BAL fluid haemoglobin content, dose dependence: dose-dependent inhibition
[4]; thermodynamic from solid, read-out: Solubility (mg/ml) in water
  solubility: < 0.05 mg/mL
[4]
  Solubility (mg/ml) in water: <0.05 mg/mL
